Source: patent US8148428B2 (priority 2006, dated 2012)
Read-outs that look alike come from different tables or passages of the source.

Key:
[1] = system: Lassa GP-pseudotyped-virus; test: microbe, parasite or virus in culture; assay type: cell-based, Lassa fever virus; set-up: Activity against Lassa GP-pseudotyped-virus specificity: reference not given here
[2] = system: Lassa fever virus (Josiah strain); test: organism not typed; assay type: cell-based; conditions: for EC50: read-out: Activity vs. LFV EC50
[3] = system: Tacaribe envelope pseudotyped virus; test: organism not typed; assay type: cell-based; conditions: read-out: EC50, pseudotyped viral infection, Tacaribe envelope
[4] = system: Guanarito envelope pseudotyped virus; test: organism not typed; assay type: cell-based; conditions: read-out: EC50, pseudotyped viral infection, Guanarito envelope
[5] = Human immunodeficiency virus 1, read-out: Activity against Lassa GP-pseudotyped-virus EC50

**Q.** Which “Activity against Lassa GP-pseudotyped-virus specificity” value [1] does the source give for `COc1ccc(/C(C)=N/NC(=O)C2CC2c2ccccc2)c(OC)c1` (stereo not drawn) [Compound 600120, 2-Phenyl-cyclopropanecarboxylic acid [1-(2,4-dimethoxy-phenyl)-eth-(E)-ylidene]-hydrazide] here?
**A.** 180

**Q.** And the EC50 [1, 5]?
**A.** 120 nM

**Q.** What does the source list for `C/C(=N\NC(=O)C1CC1c1ccccc1)c1ccc(NC(=O)c2ccc(Cl)s2)cc1` (stereo not drawn) [Compound 600183, 5-Chloro-thiophene-2-carboxylic acid (4-[1-[(2-phenyl-cyclopropanecarbonyl)-hydrazono]-ethyl]-phenyl)-amide]?
**A.** Activity against Lassa GP-pseudotyped-virus specificity [1]: >4000; EC50 [1, 5]: < 3 nM

**Q.** Which results are given for `C/C(=N/NC(=O)C1CC1c1ccccc1)c1ccc(NC(=O)c2ccc(Cl)cc2Cl)cc1` (stereo not drawn) [Compound 600162, 2,4-Dichloro-N-(4-[1-[(2-Phenyl-cyclopropanecarbonyl)-hydrazono]ethyl]-phenyl)-benzamide]?
**A.** Activity against Lassa GP-pseudotyped-virus specificity [1]: >4000; EC50 [1, 5]: < 3 nM

**Q.** Which “Activity against Lassa GP-pseudotyped-virus specificity” value [1] does the source give for `C/C(=N/NC(=O)C1CC1c1ccc(C(C)(C)C)cc1)c1ccc(F)cc1` (stereo not drawn) [Compound 600197, 2-(4-tert-Butyl-phenyl)-cyclopropanecarboxylic acid [1-(4-fluoro-phenyl)-eth-(Z)-ylidene]-hydrazide] here?
**A.** 650

**Q.** And the EC50 [1, 5]?
**A.** 20 nM

**Q.** Which “Activity against Lassa GP-pseudotyped-virus specificity” value [1] does the source give for `COc1ccc(/C(C)=N\NC(=O)C2CC2c2ccc(C(C)(C)C)cc2)cc1[N+](=O)[O-]` (stereo not drawn) [Compound 600198, 2-(4-tert-Butyl-phenyl)-cyclopropanecarboxylic acid [1-(4-methoxy-3-nitro-phenyl)-eth-(Z)-ylidene]-hydrazide] here?
**A.** >800

**Q.** And the EC50 [1, 5]?
**A.** 14 nM

**Q.** How did the “Activity against Lassa GP-pseudotyped-virus specificity” value [1] turn out when `C/C(=N/NC(=O)C1CC1c1ccccc1)c1ccc(NC(=O)C(F)(F)F)cc1` (stereo not drawn) [Compound 600187, 2,2,2-Trifluoro-N-(4-[1-[(2-phenyl-cyclopropanecarbonyl)-hydrazono]-ethyl]-phenyl)-acetamide] was run?
**A.** >4000

**Q.** And the EC50 [1, 5]?
**A.** 3 nM

**Q.** Which “Activity against Lassa GP-pseudotyped-virus specificity” value [1] does the source give for `C/C(=N\NC(=O)C1CC1c1ccccc1)c1ccc(C)cc1` (stereo not drawn) [Compound 600124, 2-Phenyl-cyclopropanecarboxylic acid [1-p-tolyl-eth-(E)-ylidene]-hydrazide] here?
**A.** >700

**Q.** And the EC50 [1, 5]?
**A.** < 30 nM

**Q.** With `C/C(=N\NC(=O)C1CC1c1ccccc1)c1ccccc1O` (stereo not drawn) [Compound 600176, 2-Phenyl-cyclopropanecarboxylic acid [1-(2-hydroxy-phenyl)-eth-(E)-ylidene]-hydrazide] as the compound, how does the “Activity against Lassa GP-pseudotyped-virus specificity” value [1] read?
**A.** >14

**Q.** What about the EC50 [1, 5] of the same compound?
**A.** 800 nM

**Q.** `C/C(=N/NC(=O)C1CC1c1ccc(C(C)(C)C)cc1)c1cccc(NC(=O)c2ccccc2F)c1` (stereo not drawn) [Compound 600182, N-[3-(1-[[2-(4-tert-Butyl-phenyl)-cyclopropanecarbonyl]-hydrazono]-ethyl)-phenyl]-2-fluoro-benzamide] was tested. Which “Activity against Lassa GP-pseudotyped-virus specificity” value [1] did it give?
**A.** >15

**Q.** What about the EC50 [1, 5] of the same compound?
**A.** 800 nM

**Q.** Which “Activity against Lassa GP-pseudotyped-virus specificity” value [1] does the source give for `C/C(=N/NC(=O)C1CC1c1ccccc1)c1ccc(NC(=O)C2CC2)cc1` (stereo not drawn) [Compound 600100, Cyclopropanecarboxylic acid (4-[1-[(2-phenyl-cyclopropanecarbonyl)-hydrazono]-ethyl]-phenyl)-amide] here?
**A.** >20,000

**Q.** What about the EC50 [1, 5] of the same compound?
**A.** 2 nM

**Q.** What about the EC50 [2] of the same compound?
**A.** < 400 nM

**Q.** With `C/C(=N\NC(=O)C1CC1c1ccccc1)c1cccc(NC(=O)c2ccccc2F)c1` (stereo not drawn) [Compound 600185] as the compound, how does the “Activity against Lassa GP-pseudotyped-virus specificity” value [1] read?
**A.** >1.3

**Q.** What about the EC50 [1, 5] of the same compound?
**A.** 9000 nM

**Q.** Which results are given for `C/C(=N\NC(=O)C1CC1c1ccccc1)c1ccc(NC(=O)c2ccco2)cc1` (stereo not drawn) [Compound 600161, Furan-2-carboxylic acid (4-[1-[(2-phenyl-cyclopropanecarbonyl)-hydrazono]-ethyl]-phenyl)-amide]?
**A.** Activity against Lassa GP-pseudotyped-virus specificity [1]: >90,000; EC50 [1, 5]: 0.5 nM; EC50 [3]: 800 nM; EC50 [4]: 300 nM; Activity vs. LFV T.I. (therapeutic index) [2]: >2000; EC50 [2]: < 20 nM

**Q.** Which “Activity against Lassa GP-pseudotyped-virus specificity” value [1] does the source give for `C/C(=N/NC(=O)C1CC1c1ccccc1)c1ccccc1Cl` (stereo not drawn) [Compound 600092, 2-Phenyl-cyclopropanecarboxylic acid [1-(2-chloro-phenyl)-eth-(Z)-ylidene]-hydrazide] here?
**A.** 20

**Q.** What about the EC50 [1, 5] of the same compound?
**A.** 200 nM

**Q.** Which results are given for `C/C(=N/NC(=O)C1CC1c1ccccc1)c1ccc2c3c(cccc13)CC2` (stereo not drawn) [Compound 600156]?
**A.** Activity against Lassa GP-pseudotyped-virus specificity [1]: none; EC50 [1, 5]: 2000 nM

**Q.** With `CC(=O)Nc1ccc(/C(C)=N/NC(=O)C2CC2c2ccccc2)cc1` (stereo not drawn) [Compound 600184, N-(4-[1-[(2-phenyl-cyclopropanecarbonyl)-hydrazono]-ethyl}-phenyl)-acetamide] as the compound, how does the “Activity against Lassa GP-pseudotyped-virus specificity” value [1] read?
**A.** >3000

**Q.** What about the EC50 [1, 5] of the same compound?
**A.** 3 nM

**Q.** For `CC(C)/C(=N\NC(=O)C1CC1c1ccccc1)c1ccccc1` (stereo not drawn) [Compound 600123], which “Activity against Lassa GP-pseudotyped-virus specificity” value [1] is on record?
**A.** 60

**Q.** And the EC50 ([1]; read-out: Activity against Lassa GP-pseudotyped-virus EC50)?
**A.** 200 nM

**Q.** How did the “Activity against Lassa GP-pseudotyped-virus specificity” value [1] turn out when `C/C(=N\NC(=O)C1CC1c1ccccc1)c1ccc(N)cc1` (stereo not drawn) [Compound 408306, 2-Phenyl-cyclopropanecarboxylic acid [1-(4-amino-phenyl)-eth-(E)-ylidene]-hydrazide] was run?
**A.** >2000

**Q.** What about the EC50 [1, 5] of the same compound?
**A.** 20 nM

**Q.** What about the “Activity vs. LFV T.I. (therapeutic index)” value [2] of the same compound?
**A.** >100

**Q.** What about the EC50 [2] of the same compound?
**A.** 500 nM

**Q.** Which “Activity against Lassa GP-pseudotyped-virus specificity” value [1] does the source give for `CCOC(=O)C/C(C)=N/NC(=O)C1CC1c1ccccc1` (stereo not drawn) [Compound 600091, 3-[(2-Phenyl-cyclopropanecarbonyl)-hydrazono]-butyric acid ethyl ester] here?
**A.** >18

**Q.** And the EC50 [1, 5]?
**A.** 1600 nM

**Q.** Which results are given for `C/C(=N\NC(=O)C1CC1c1ccccc1)C1CC1` (stereo not drawn) [Compound 600086, 2-Phenyl-cyclopropanecarboxylic acid [1-cyclopropyl-eth-(E)-ylidene]-hydrazide]?
**A.** Activity against Lassa GP-pseudotyped-virus specificity [1]: >2; EC50 [1, 5]: 10000 nM

**Q.** With `COc1ccc(C(C)=NNC(=O)C2CC2c2ccccc2)cc1` (stereo in doubt) [Compound 600180, 2-Phenyl-cyclopropanecarboxylic acid [1-(4-methoxy-phenyl)-eth-(Z)-ylidene]-hydrazide] as the compound, how does the “Activity against Lassa GP-pseudotyped-virus specificity” value [1] read?
**A.** >4000

**Q.** What about the EC50 [1, 5] of the same compound?
**A.** < 3 nM

**Q.** With `Cc1ccc2c(c1Br)C(=NNC(=O)C1CC1c1ccccc1)C(=O)N2` (stereo not drawn) [Compound 600140, 2-Phenyl-cyclopropanecarboxylic acid [4-bromo-5-methyl-2-oxo-1,2-dihydro-indol-(3E)-ylidene]-hydrazide] as the compound, how does the “Activity against Lassa GP-pseudotyped-virus specificity” value [1] read?
**A.** >30

**Q.** And the EC50 [1, 5]?
**A.** 300 nM

**Q.** How did the “Activity against Lassa GP-pseudotyped-virus specificity” value [1] turn out when `C/C(=N\NC(=O)C1CC1c1ccccc1)c1ccc(C2CCCCC2)cc1` (stereo not drawn) [Compound 600181, 2-Phenyl-cyclopropanecarboxylic acid [1-(4-cyclohexyl-phenyl)-eth-(E)-ylidene]-hydrazide] was run?
**A.** >400

**Q.** What about the EC50 [1, 5] of the same compound?
**A.** 20 nM

**Q.** Which “Activity against Lassa GP-pseudotyped-virus specificity” value [1] does the source give for `C/C(=N\NC(=O)C1CC1c1ccccc1)c1ccc(N(C)C)cc1` (stereo not drawn) [Compound 600178, 2-Phenyl-cyclopropanecarboxylic acid [1-(4-dimethylamino-phenyl)-eth-(E)-ylidene]-hydrazide] here?
**A.** >4000

**Q.** What about the EC50 [1, 5] of the same compound?
**A.** < 3 nM

**Q.** With `C/C(=N\NC(=O)C1CC1c1ccccc1)c1ccc(-c2ccccc2)cc1` (stereo not drawn) [Compound 600152, 2-Phenyl-cyclopropanecarboxylic acid [1-biphenyl-4-yl-eth-(E)-ylidene]-hydrazide] as the compound, how does the “Activity against Lassa GP-pseudotyped-virus specificity” value [1] read?
**A.** >8000

**Q.** And the EC50 [1, 5]?
**A.** 1 nM

**Q.** What does the source list for `COc1ccc(/C(C)=N/NC(=O)C2CC2c2ccccc2)cc1OC` (stereo not drawn) [Compound 600154, 2-Phenyl-cyctopropanecarboxylic acid [1-(3,4-dimethoxy-phenyl)-eth-(E)-ylidene]-hydrazide]?
**A.** Activity against Lassa GP-pseudotyped-virus specificity [1]: >50; EC50 [1, 5]: 200 nM

**Q.** With `C/C(=N\NC(=O)CCc1ccccc1)c1cccc(N)c1` [Compound 600090, 3-Phenyl-propionic acid [1-(3-amino-phenyl)-eth-(E)-ylidene]-hydrazide] as the compound, how does the “Activity against Lassa GP-pseudotyped-virus specificity” value [1] read?
**A.** >18

**Q.** And the EC50 [1, 5]?
**A.** 1600 nM

**Q.** With `O=C1Nc2ccc([N+](=O)[O-])cc2/C1=N/NC(=O)C1CC1c1ccccc1` (stereo not drawn) [Compound 600155, 2-Phenyl-cyclopropanecarboxylic acid [5-nitro-2-oxo-1,2-dihydro-indol-(3Z)-ylidene]-hydrazide] as the compound, how does the “Activity against Lassa GP-pseudotyped-virus specificity” value [1] read?
**A.** >40

**Q.** What about the EC50 [1, 5] of the same compound?
**A.** 300 nM

**Q.** With `O=C(N/N=C/c1ccccc1)[C@H]1C[C@@H]1c1ccccc1` [Compound 600075, (1S,2S)-2-Phenyl-cyclopropanecarboxylic acid [1-phenyl-meth-(E)-ylidene]-hydrazide] as the compound, how does the EC50 [1, 5] read?
**A.** > 30000 nM

**Q.** What does the source list for `C/C(=N/NC(=O)C1CC1c1ccccc1)c1cccs1` (stereo not drawn) [Compound 600093, 2-Phenyl-cyclopropartecarboxylic acid [1-thiophen-2-yl-eth-(Z)-ylidene]-hydrazide]?
**A.** Activity against Lassa GP-pseudotyped-virus specificity [1]: 2; EC50 [1, 5]: 14000 nM

**Q.** How did the “Activity against Lassa GP-pseudotyped-virus specificity” value [1] turn out when `O=C1Nc2ccccc2/C1=N\NC(=O)C1CC1c1ccccc1` (stereo not drawn) [Compound 600087, 2-Phenyl-cyclopropanecarboxylic acid [2-oxo-1,2-dihydro-indol-(3E)-ylidene]-hydrazide] was run?
**A.** >700

**Q.** What about the EC50 [1, 5] of the same compound?
**A.** 40 nM
